In the CheMixHub viscosity set:
“And” between values parts separate entries of the source, which are not always exact repeats. Equal entries are not always repeated. ± gives the uncertainty stated by the source.

Experiment: xn = mol fraction of the nth substance listed

O=C(O)c1ccccc1 + CCCO
viscosity
Settings	298.15 K	303.15 K	308.15 K	313.15 K	318.15 K
101 kPa, x1 = 0.164	–	2.531 ± 0.021 mPa·s	–	–	1.77 ± 0.017 mPa·s
101 kPa, x1 = 0.1645	2.892 ± 0.074 mPa·s	2.531 ± 0.065 mPa·s	2.243 ± 0.057 mPa·s	1.988 ± 0.051 mPa·s	1.77 ± 0.045 mPa·s
101 kPa, x1 = 0.178	–	2.603 ± 0.022 mPa·s	–	–	1.816 ± 0.017 mPa·s
101 kPa, x1 = 0.197	–	2.724 ± 0.023 mPa·s	–	–	1.881 ± 0.018 mPa·s
101 kPa, x1 = 0.216	–	2.844 ± 0.024 mPa·s and 2.844 ± 0.072 mPa·s	2.498 ± 0.064 mPa·s	2.206 ± 0.056 mPa·s	1.965 ± 0.019 mPa·s and 1.965 ± 0.05 mPa·s
101.33 kPa, x1 = 0.1645	–	2.531 ± 0.067 mPa·s	–	–	1.77 ± 0.047 mPa·s
101.33 kPa, x1 = 0.178	–	2.603 ± 0.069 mPa·s	–	–	1.816 ± 0.049 mPa·s
101.33 kPa, x1 = 0.1975	–	2.734 ± 0.072 mPa·s	–	–	1.881 ± 0.05 mPa·s
101.33 kPa, x1 = 0.2	2.892 ± 0.02 mPa·s	2.531 ± 0.018 mPa·s and 2.531 ± 0.067 mPa·s	2.243 ± 0.016 mPa·s and 2.243 ± 0.06 mPa·s	1.988 ± 0.014 mPa·s and 1.988 ± 0.053 mPa·s	1.77 ± 0.012 mPa·s and 1.77 ± 0.047 mPa·s
101.33 kPa, x1 = 0.216	–	2.844 ± 0.075 mPa·s	–	–	1.965 ± 0.053 mPa·s
101.33 kPa, x1 = 0.22	–	2.844 ± 0.02 mPa·s and 2.844 ± 0.075 mPa·s	2.498 ± 0.017 mPa·s and 2.498 ± 0.066 mPa·s	2.206 ± 0.015 mPa·s and 2.206 ± 0.058 mPa·s	1.965 ± 0.014 mPa·s and 1.965 ± 0.052 mPa·s

C1CCCCC1 + CCO
Settings	viscosity [mPa·s]
293.15 K, 101.3 kPa, x1 = 0.0565	1.143 ± 0.019
293.15 K, 101.3 kPa, x1 = 0.2674	1.028 ± 0.017
293.15 K, 101.3 kPa, x1 = 0.3539	0.9953 ± 0.017
293.15 K, 101.3 kPa, x1 = 0.4506	0.9698 ± 0.016
293.15 K, 101.3 kPa, x1 = 0.5626	0.9436 ± 0.016
293.15 K, 101.3 kPa, x1 = 0.6898	0.9184 ± 0.015
293.15 K, 101.3 kPa, x1 = 0.8348	0.9099 ± 0.015
298.15 K, 101 kPa, x2 = 0.0396	0.871 ± 0.008
298.15 K, 101 kPa, x2 = 0.0718	0.867 ± 0.008
298.15 K, 101 kPa, x2 = 0.1435	0.851 ± 0.008
298.15 K, 101 kPa, x2 = 0.3225	0.839 ± 0.008
298.15 K, 101 kPa, x2 = 0.4832	0.864 ± 0.008
298.15 K, 101 kPa, x2 = 0.6269	0.901 ± 0.009
298.15 K, 101 kPa, x2 = 0.7067	0.923 ± 0.009
298.15 K, 101 kPa, x2 = 0.8205	0.967 ± 0.009
298.15 K, 101.3 kPa, x1 = 0.0565	1.037 ± 0.018
298.15 K, 101.3 kPa, x1 = 0.1188	0.9995 ± 0.017
298.15 K, 101.3 kPa, x1 = 0.1894	0.9602 ± 0.016
298.15 K, 101.3 kPa, x1 = 0.2674	0.9303 ± 0.016
298.15 K, 101.3 kPa, x1 = 0.3539	0.9067 ± 0.015
298.15 K, 101.3 kPa, x1 = 0.4506	0.8821 ± 0.015
298.15 K, 101.3 kPa, x1 = 0.5626	0.8589 ± 0.015
298.15 K, 101.3 kPa, x1 = 0.6898	0.8388 ± 0.014
298.15 K, 101.3 kPa, x1 = 0.8348	0.8319 ± 0.014
298.15 K, 101.33 kPa, x1 = 0.0999	1.003 ± 0.013
298.15 K, 101.33 kPa, x1 = 0.1993	0.951 ± 0.012
298.15 K, 101.33 kPa, x1 = 0.2995	0.923 ± 0.012
298.15 K, 101.33 kPa, x1 = 0.3987	0.892 ± 0.011
298.15 K, 101.33 kPa, x1 = 0.5003	0.872 ± 0.011
298.15 K, 101.33 kPa, x1 = 0.55	0.861 ± 0.011
298.15 K, 101.33 kPa, x1 = 0.6011	0.851 ± 0.011
298.15 K, 101.33 kPa, x1 = 0.7014	0.831 ± 0.011
298.15 K, 101.33 kPa, x1 = 0.803	0.826 ± 0.011
298.15 K, 101.33 kPa, x1 = 0.9006	0.84 ± 0.011
303.15 K, 101.3 kPa, x1 = 0.0565	0.947 ± 0.016
303.15 K, 101.3 kPa, x1 = 0.1188	0.9133 ± 0.016
303.15 K, 101.3 kPa, x1 = 0.1894	0.8784 ± 0.015
303.15 K, 101.3 kPa, x1 = 0.2674	0.8522 ± 0.015
303.15 K, 101.3 kPa, x1 = 0.3539	0.8288 ± 0.014
303.15 K, 101.3 kPa, x1 = 0.4506	0.8084 ± 0.014
303.15 K, 101.3 kPa, x1 = 0.5626	0.786 ± 0.014
303.15 K, 101.3 kPa, x1 = 0.6898	0.7655 ± 0.013
303.15 K, 101.3 kPa, x1 = 0.8348	0.7647 ± 0.013
303.15 K, 101.33 kPa, x2 = 0.0952	0.7883 ± 0.01
303.15 K, 101.33 kPa, x2 = 0.1976	0.7705 ± 0.0099
303.15 K, 101.33 kPa, x2 = 0.2988	0.7735 ± 0.0099
303.15 K, 101.33 kPa, x2 = 0.3894	0.7762 ± 0.01
303.15 K, 101.33 kPa, x2 = 0.4879	0.7852 ± 0.01
303.15 K, 101.33 kPa, x2 = 0.5929	0.8063 ± 0.01
303.15 K, 101.33 kPa, x2 = 0.7828	0.8609 ± 0.011
303.15 K, 101.33 kPa, x2 = 0.9018	0.921 ± 0.012
308.15 K, 101 kPa, x2 = 0.0396	0.741 ± 0.007
308.15 K, 101 kPa, x2 = 0.0718	0.729 ± 0.007
308.15 K, 101 kPa, x2 = 0.1435	0.716 ± 0.007
308.15 K, 101 kPa, x2 = 0.3225	0.707 ± 0.007
308.15 K, 101 kPa, x2 = 0.4832	0.726 ± 0.007
308.15 K, 101 kPa, x2 = 0.6269	0.752 ± 0.007
308.15 K, 101 kPa, x2 = 0.7067	0.772 ± 0.008
308.15 K, 101 kPa, x2 = 0.8205	0.807 ± 0.008
308.15 K, 101 kPa, x2 = 0.8789	0.835 ± 0.008
308.15 K, 101 kPa, x2 = 0.9548	0.875 ± 0.008
308.15 K, 101.3 kPa, x1 = 0.0565	0.8683 ± 0.015
308.15 K, 101.3 kPa, x1 = 0.1188	0.8383 ± 0.015
308.15 K, 101.3 kPa, x1 = 0.1894	0.8039 ± 0.014
308.15 K, 101.3 kPa, x1 = 0.2674	0.7793 ± 0.014
308.15 K, 101.3 kPa, x1 = 0.3539	0.7578 ± 0.013
308.15 K, 101.3 kPa, x1 = 0.4506	0.7384 ± 0.013
308.15 K, 101.3 kPa, x1 = 0.5626	0.7191 ± 0.013
308.15 K, 101.3 kPa, x1 = 0.6898	0.7052 ± 0.012
308.15 K, 101.3 kPa, x1 = 0.8348	0.7051 ± 0.012
318.15 K, 101 kPa, x2 = 0.0396	0.632 ± 0.006
318.15 K, 101 kPa, x2 = 0.0718	0.627 ± 0.006
318.15 K, 101 kPa, x2 = 0.1435	0.614 ± 0.006
318.15 K, 101 kPa, x2 = 0.3225	0.601 ± 0.006
318.15 K, 101 kPa, x2 = 0.4832	0.616 ± 0.006
318.15 K, 101 kPa, x2 = 0.6269	0.634 ± 0.006
318.15 K, 101 kPa, x2 = 0.7067	0.649 ± 0.007
318.15 K, 101 kPa, x2 = 0.8205	0.68 ± 0.007
318.15 K, 101 kPa, x2 = 0.8789	0.701 ± 0.007
318.15 K, 101 kPa, x2 = 0.9548	0.736 ± 0.007

COCCOC + CCO
298.15 K, 101 kPa
Settings	viscosity [mPa·s]
x1 = 0.05375	0.9565 ± 0.0064
x1 = 0.1133	0.8329 ± 0.0057
x1 = 0.1797	0.7369 ± 0.0051
x1 = 0.2542	0.663 ± 0.0047
x1 = 0.3383	0.5931 ± 0.0043
x1 = 0.434	0.5444 ± 0.004
x1 = 0.544	0.4926 ± 0.0037
x1 = 0.8215	0.4356 ± 0.0033
